The text below walks through data of patent US11149046B2, “Antibacterial sideromycins” (Hsiri Therapeutics, Inc., priority 2014, dated 2021).

Usually MIC stands for the least concentration at which growth counts as inhibited. For orientation: pIC50 means the negative decadic logarithm of the IC50, by convention in mol/L. For orientation: zone of inhibition means the extent of the growth-free halo in a diffusion test.

pIC50: −log10 of the molar value. In brackets after ≈: the same amount, converted by molar mass. Read-outs that look alike come from different tables or passages of the source.

In one data set the test system is P. aeruginosa KW799/wt. The experiment in a line: MIC determination. The data set is classed as cell-based, Pseudomonas aeruginosa. From the text: (§1) Table 3 that was included in the first Example 4 section provides antibacterial data for the first synthetic sideromycins we prepared and studied. The second Example 4 section elaborated and expanded on that data with inclusion of representative antibacterial data in the text and associated pictures of Petri dish assays. MIC (minimum inhibition concentration) is given in μM and AD (agar diffusion zones of inhibition are given in mm from Kirby-Bauer Petri dish growth inhibition studies).

A further data set deals with Pa6. Kind of data set: MIC determination. The conditions noted are these: read-out: MIC. The data set is classed as cell-based, Pseudomonas aeruginosa. From the text: (§2) MIC (minimum inhibition concentration) is given in μM and AD (agar diffusion zones of inhibition are given in mm from Kirby-Bauer Petri dish growth inhibition studies).
For data set [1], the system named is Pa-Da-1304 CF patient isolate. Kind of data set: MIC determination. The data set is classed as cell-based, Pseudomonas aeruginosa. The following applies: clinical isolate from a cystic fibrosis patient.
Text: as §2
We obtained a clinical isolate of Pseudomonas from a cystic fibrosis patient.

Data set [2] relates to Pseudomonas aeruginosa 01 (Pa01). Kind of data set: MIC determination. It counts as cell-based.
Text: as §1

The next data set can be described thus: Stability assay in media. The data set is classed as physicochemical. From the text:
The initial antibacterial assay shown in Table 6 indicated activity against select strains of Pseudomonas and/or Acinetobacter. However, the reduction of activity at higher concentrations but excellent activity at lower, drug like concentrations, raised the concern that either the conjugates were unstable or some of the siderophore component remained in the final conjugate and at higher concentrations, the siderophore growth promotion would compete for the sideromycin growth inhibition. The possible instability was considered to be due to the presence of the short succinate linker that upon bacterial uptake and iron removal would promote intramolecular release of the antibiotic component and regeneration of the siderophore with subsequent growth promotion effects. […] Meanwhile, the assays were repeated with intentional addition (titration with) of the siderophore component itself to the sideromycins. […] Therefore, each of these mixed ligand sideromycins has been resynthesized and rigorously purified. […] MIC antibacterial assays are being repeated with the newly prepared samples. […] Thus, the mixed ligand system has the potential to be a very potent and selective anti-Acinetobacter sideromycin.

For data set [3], the system named is strains of Pseudomonas and Acinetobacter. Kind of data set: Antibacterial activity, general statements. The data set is classed as cell-based. The following applies: general statements of the text. Here is the method:
Antibiotic activity was determined using agar diffusion assays against representative Gram-negative bacteria, including Pseudomonas aeruginosa (Pa6), and several multidrug resistant forms of Acinetobacter baumannii. Representative results are shown in Table 1 and a corresponding picture of an actual petri dish showing the agar diffusion results (FIG. 4). […].

Data set [4] can be described thus: Cytotoxicity assay. The following applies: human, PC3 cells.
Data set [5] is described as follows: Cytotoxicity assay. The following applies: human, MCF7 cells.
The nature of data set [6]: Cytotoxicity assay. The following applies: human, HeLa cells.
In the next data set the test system is Pa4. The experiment in a line: MIC determination. The data set is classed as cell-based, Pseudomonas aeruginosa.
Text: as §1

In another data set the test system is A. baumannii ATCC 17961. Kind of data set: MIC determination. It counts as cell-based, Acinetobacter baumannii.
Text: as §1

A further data set deals with A. baumannii ARC 3486. The experiment in a line: MIC determination. The data set is classed as cell-based. The conditions noted are these: Acinetobacter baumannii, ARC3486; Table 2; read-out: in vitro activity (MIC).
The next data set deals with A. baumannii ISR 14-0061. Kind of data set: MIC determination. The following applies: Acinetobacter baumannii, ISR140061; Table 2; read-out: in vitro activity (MIC). It counts as cell-based.
The test system of data set [7] is Burkholderia multivorans AU0100. Kind of data set: MIC determination. The following applies: Table 2, read-out: in vitro activity (MIC). The data set is classed as cell-based.
The next data set relates to S. Aureus ISR 14-001. Kind of data set: MIC determination. The data set is classed as cell-based. The conditions noted are these: Staphylococcus aureus; Table 2; read-out: in vitro activity (MIC).
The test system of another data set is S. Aureus ISR-002. Kind of data set: MIC determination. The data set is classed as cell-based. The conditions noted are these: Staphylococcus aureus; Table 2; read-out: in vitro activity (MIC).
A further data set relates to E. coli DC0. The experiment in a line: MIC determination. It counts as cell-based. The conditions noted are these: Escherichia coli, DC0, read-out: in vitro activity (MIC).
Text: as §1

A further data set relates to P. aeruginosa Pa6. Kind of data set: Agar diffusion assay. The conditions noted are these: Pseudomonas aeruginosa, PA6; M-HII media; 0.5 mM (ciprofloxacin 5 μg/ml), 50 uL per well, 37° C. 20 hrs; P unclear, V very unclear zone; read-out: Zone of Growth Inhibition. It counts as cell-based, Pseudomonas aeruginosa. The protocol: (§3) Antibiotic activity was determined using agar diffusion assays against representative Gram-negative bacteria, including Pseudomonas aeruginosa (Pa6), and several multidrug resistant forms of Acinetobacter baumannii. Representative results are shown in Table 1 and a corresponding picture of an actual petri dish showing the agar diffusion results (FIG. 4). […]. [table]

The next data set relates to A. baumannii BAA 1710. Kind of data set: Agar diffusion assay. The data set is classed as cell-based, Acinetobacter baumannii. The conditions noted are these: Acinetobacter baumannii, BAA1710; M-HII media; 0.5 mM (ciprofloxacin 5 μg/ml), 50 uL per well, 37° C. 20 hrs; P unclear zone; read-out: Zone of Growth Inhibition. Here is the method: as §3
For orientation: In agar diffusion tests the substance spreads into inoculated agar from a disc or well.

In another data set the test system is A. baumannii BAA 1793. The experiment in a line: Agar diffusion assay. It counts as cell-based, Acinetobacter baumannii. The conditions noted are these: Acinetobacter baumannii, BAA1793; M-HII media; 0.5 mM (ciprofloxacin 5 μg/ml), 50 uL per well, 37° C. 20 hrs; P unclear zone; read-out: Zone of Growth Inhibition. The protocol: as §3
For another data set, the system named is A. baumannii BAA 1797. Kind of data set: Agar diffusion assay. It counts as cell-based, Acinetobacter baumannii. The following applies: Acinetobacter baumannii, BAA1797; M-HII media; 0.5 mM (ciprofloxacin 5 μg/ml), 50 uL per well, 37° C. 20 hrs; P unclear zone; read-out: Zone of Growth Inhibition. Here is the method: as §3
The test system of a further data set is A. baumannii BAA 1800. Kind of data set: Agar diffusion assay. It counts as cell-based, Acinetobacter baumannii. The following applies: Acinetobacter baumannii, BAA1800; M-HII media; 0.5 mM (ciprofloxacin 5 μg/ml), 50 uL per well, 37° C. 20 hrs; read-out: Zone of Growth Inhibition. Here is the method:
as §3

Data set [8] has as its system Acinetobacter baumannii ATCC 17961. Kind of data set: In vivo activity against Acinetobacter baumannii in mice (FIG. 7). The following applies: 50 mg/kg IV at 30 min and 24 hr post inoculation; IP 10^8 A. baumannii ATCC 17961; female ICR mice. The protocol:
Y-axis is percent surviving; x-axis is days after inoculation. Note: 5/5 Vehicle and 5/5 daptomycin treated mice were all dead at Day 1; […] female ICR mice; IP inoculation with 10^8 Acinetobacter baumannii ATCC 17961; Treatment administered IV at 30 min and 24 hr post inoculation; Treatments—Ciprofloxacin 50 mg/kg, HT-10100 mg/kg, HT-10 50 mg/kg, HT-10 25 mg/kg, HT-10 10 mg/kg, HT-10 5 mg/kg, daptomycin 50 mg/kg, Vehicle.

The subject of data set [9] is multi-drug resistant Acinetobacter. Kind of data set: Dose dependent agar diffusion (FIG. 5). It counts as cell-based. From the text: Note Daptomycin is not active (arrow),

As to `CC(=O)Oc1cccc(C(=O)NCCCCN(CCCNC(=O)c2cccc(OC(C)=O)c2OC(C)=O)C(=O)CCC(=O)NCCCCCN(OC(C)=O)C(=O)CCC(=O)N[C@@H](C(=O)N[C@@H]2C(=O)N3C2SC(C)(C)[C@@H]3C(=O)O)c2ccccc2)c1OC(C)=O` (some centres unmarked) [MG-1-121], the minimal inhibitory concentration (MIC) against P. aeruginosa KW799/wt was 0.14 to 0.2 µM; with P. aeruginosa KW799/wt (Pseudomonas aeruginosa, KW799/WT, Table 6, read-out: MIC), 0.14 to 0.2 µM (≈ 0.176 to 0.252 µg/mL); with P. aeruginosa KW799/wt (listed as MG-1-239, read-out: MIC) it was 0.05 µM (≈ 0.063 µg/mL); with Pa6 (Pseudomonas aeruginosa, Table 6), above 50 µM; in data set [1] (Pseudomonas aeruginosa), above 50 µM; in [2], 0.39 to 0.55 µM. Besides, the minimum inhibitory concentration (MIC) in data set [2] (Pseudomonas aeruginosa, Table 6, read-out: MIC) is 0.39 to 0.55 µM (≈ 0.491 to 0.693 µg/mL); in data set [2] (Pseudomonas aeruginosa, read-out: MIC), 0.2 µM (≈ 0.252 µg/mL). In addition, in the data set “Stability assay in media” (incubated in media under conditions that mimic the antibacterial assays, LC/MS), the “stability in media (in words)” value is “expected loss of acetyl groups”. Further, in [3], the “antibacterial activity (in words)” value is on record as “broad spectrum activity”. For the same molecule, the negative-log IC50 (pIC50) in “Cytotoxicity assay [4]”, in “Cytotoxicity assay [5]” and in the data set “Cytotoxicity assay [6]” was below 4.70 throughout.

With `O=C(CCC(=O)N(CCCCNC(=O)c1cccc(O)c1O)CCCNC(=O)c1cccc(O)c1O)NCCCCCN(O)C(=O)CCCC(=O)NC(C(=O)NC1C(=O)N2C(C(=O)O)=C(Cl)CCC12)c1ccccc1` (centres unmarked) [MG-1-227], the MIC in the data set with P. aeruginosa KW799/wt (read-out: MIC) is 0.2 µM (≈ 0.213 µg/mL); in the data set with Pa4 it was above 50 µM; with Pa6 (beta-lactamase producer strain) it was above 50 µM; in data set [1], above 50 µM; in the data set with A. baumannii ATCC 17961 (read-out: MIC) it was 0.025 µM (≈ 0.0266 µg/mL). For the same molecule, the “stability in media (in words)” value in the data set “Stability assay in media” is “showed the desired stability”. For the same molecule, the values for the pIC50 in the data set on PC3, in the data set with MCF7 and in the data set on Hela were 4.82, 4.96 and below 4.70, respectively.

`CCCCCCCCCC(=O)N[C@@H](Cc1c[nH]c2ccccc12)C(=O)N[C@H](CC(N)=O)C(=O)N[C@@H](CC(=O)O)C(=O)N[C@@H]1C(=O)NCC(=O)N[C@@H](CCCN)C(=O)N[C@@H](CC(=O)O)C(=O)N[C@H](C)C(=O)N[C@@H](CC(=O)O)C(=O)NCC(=O)N[C@H](CO)C(=O)N[C@@H]([C@H](C)CC(=O)O)C(=O)N[C@@H](CC(=O)c2ccccc2N)C(=O)O[C@@H]1C` [daptomycin]: the MIC in the data set on A. baumannii ATCC 17961 (Acinetobacter baumannii, ATCC17961, Table 2, read-out: in vitro activity (MIC)) is above 100 µM; in the data set on A. baumannii ARC 3486 it was above 200 µM; in the data set with A. baumannii ISR 14-0061, above 100 µM; in data set [7] it was above 100 µM; in the data set on S. Aureus ISR 14-001 it was 0.8 µM (≈ 1.3 µg/mL); in the data set on S. Aureus ISR-002, 0.8 µM (≈ 1.3 µg/mL). The MIC is above 100 µM in the data set with E. coli DC0 and above 100 µM in [2] (Pseudomonas aeruginosa, Table 2, read-out: in vitro activity (MIC)). Further, the zone of inhibition at 500 µM in the data set with P. aeruginosa Pa6, in the data set with A. baumannii BAA 1710, in the data set with A. baumannii BAA 1793, in the data set on A. baumannii BAA 1797 and with A. baumannii BAA 1800 was 0 mm in each case. Moreover, in data set [8], the “treated mice dead at Day 1” value is recorded as 5/5. For the same molecule, in [3], the “antibacterial activity (in words)” value is “completely inactive”. In data set [9], the “in vitro activity (in words)” value is reported as “not active”.
